Assay results taken from patent US20250197864A1, “LNCRNA TRANSCRIPTS IN MELANOMAGENESIS” (The Regents of the University of California, priority 2021, published 2025).

System: gene expression in D04 melanoma cells
Assay: RNA-Seq differential expression analysis (DESeq2)
Type: cell-based, human
Conditions: up-regulated list
Description: Total RNA was isolated using the RNeasy mini Kit (QIAGEN) following the manufacturer's protocol. Quality check for extracted RNA was done using 2100 Bioanalyzer (Agilent Technologies, USA) or Tapestation System (Agilent Technologies, USA). […] For samples used for identification of MAPK-responsive lncRNAs, paired-end, 101-bp sequencing was performed by Centrillion Genomic Services (Centrillion Biosciences, USA) on an Illumina HiSeq 2000. For DE gene analysis of ASO-transfected D04 samples, paired-end, 2×150-bp sequencing was performed by Genewiz (USA) on a Illumina HiSeq.
Sequence reads were aligned to the human genome (hg19) using TopHat (Version 2.0.11).
Differential expression (DE) analysis was done using DESeq2. Differentially expressed genes were defined by more than 1.5-fold changes (log 2 >0.58 or <−0.58) in expression with FDR<0.05. GO term analysis was done using DAVID Functional Annotation Clustering analysis.
To examine the biomolecular changes upon TRASH-inhibition in melanoma, D04 cells were treated with TRASH-ASOs (SEQ ID NO:15) and Control-ASOs and RNA was extracted and used for RNA-Seq. […] These GO terms consisted of genes encoding growth factors, tyrosine kinases, G protein coupled receptor subunits, and collagen subunits. Scatter plot diagram showing differential gene expression after TRASH-ASO treatment compared to Control-ASO treatment. (cut-off for significance was adjusted p-value <0.05). Data was obtained from RNA-Seq of D04 melanoma cells, treatment period was three days. (FIG. 5c)

GACTGGAGATAATTAA (gapmer, pattern not given here) [SEQ ID NO: 15, GapmeR ASO targeting AC004540.4 (TRASH), exon region of both isoforms; used for in vitro experiments]
log2FoldChange HIST3H2A (ENSG00000181218): 0.6762 | log2FoldChange GPR3 (ENSG00000181773): 0.5989 | log2FoldChange IBA57 (ENSG00000181873): 0.6496 | log2FoldChange KCNJ14 (ENSG00000182324): 0.8416 | log2FoldChange MEX3B (ENSG00000183496): 0.7229 | log2FoldChange SLC35F3 (ENSG00000183780): 0.8791 | log2FoldChange TXNRD2 (ENSG00000184470): 0.5869 | log2FoldChange OSBP2 (ENSG00000184792): 1.106 | log2FoldChange SDR42E1 (ENSG00000184860): 0.9762 | log2FoldChange MAFF (ENSG00000185022): 0.6847 | log2FoldChange SOCS1 (ENSG00000185338): 0.6402 | log2FoldChange PMEL (ENSG00000185664): 0.9831 | log2FoldChange MYBL1 (ENSG00000185697): 0.6266 | log2FoldChange PCLO (ENSG00000186472): 0.6974 | log2FoldChange MT1X (ENSG00000187193): 0.7581 | log2FoldChange MAGEH1 (ENSG00000187601): 0.7858 | log2FoldChange ZFP69B (ENSG00000187801): 0.7093 | log2FoldChange ZP3 (ENSG00000188372): 0.8099 | log2FoldChange C22orf34 (ENSG00000188511): 0.661 | log2FoldChange GJB3 (ENSG00000188910): 1.136 | log2FoldChange GJB5 (ENSG00000189280): 1.088 | log2FoldChange SH2D5 (ENSG00000189410): 1.08 | log2FoldChange PLEKHG4 (ENSG00000196155): 0.6321 | log2FoldChange CD55 (ENSG00000196352): 0.645 | log2FoldChange NUDT11 (ENSG00000196368): 0.6654 | log2FoldChange AC009022.1 (ENSG00000196696): 0.6881 | log2FoldChange S100A2 (ENSG00000196754): 0.5809 | log2FoldChange SLC6A17 (ENSG00000197106): 1.129 | log2FoldChange ZNF860 (ENSG00000197385): 0.5877 | log2FoldChange VEPH1 (ENSG00000197415): 0.5803 | log2FoldChange ZNF841 (ENSG00000197608): 0.6523 | log2FoldChange SERPINB2 (ENSG00000197632): 0.8127 | log2FoldChange PDCD1LG2 (ENSG00000197646): 1.192 | log2FoldChange FAM49A (ENSG00000197872): 0.7378 | log2FoldChange HRNR (ENSG00000197915): 0.6084 | log2FoldChange CSF2RA (ENSG00000198223): 1.103 | log2FoldChange CD247 (ENSG00000198821): 1.07 | log2FoldChange HSD3BP5 (ENSG00000198857): 0.8606 | log2FoldChange LINC01291 (ENSG00000204792): 0.9824 | log2FoldChange KRT81 (ENSG00000205426): 0.8139 | log2FoldChange TRBC2 (ENSG00000211772): 0.6815 | log2FoldChange ANG (ENSG00000214274): 1.047 | log2FoldChange FER1L6 (ENSG00000214814): 0.6181 | log2FoldChange UBE2QL1 (ENSG00000215218): 0.6007 | log2FoldChange PLXNA4 (ENSG00000221866): 1.101 | log2FoldChange RNU2-63P (ENSG00000222724): 0.6055 | log2FoldChange ROR1-AS1 (ENSG00000223949): 0.9732 | log2FoldChange ZMIZ1-AS1 (ENSG00000224596): 0.9113 | log2FoldChange AC017002.1 (ENSG00000224959): 0.6679 | log2FoldChange AL354740.1 (ENSG00000225339): 0.7567 | log2FoldChange CFLAR-AS1 (ENSG00000226312): 0.8124 | log2FoldChange AC016831.1 (ENSG00000226380): 0.8375 | log2FoldChange ERVMER34-1 (ENSG00000226887): 0.9222 | log2FoldChange AC020571.1 (ENSG00000229056): 0.6243 | log2FoldChange AL589880.1 (ENSG00000229939): 0.6572 | log2FoldChange AL590666.2 (ENSG00000229953): 0.9636 | log2FoldChange LINC01293 (ENSG00000230836): 1.066 | log2FoldChange LINC00704 (ENSG00000231298): 0.7366 | log2FoldChange AL603650.1 (ENSG00000232355): 1.015 | log2FoldChange LINC02535 (ENSG00000234155): 1.054 | log2FoldChange PINLYP (ENSG00000234465): 0.7137 | log2FoldChange RPL13AP20 (ENSG00000234498): 1.162 | log2FoldChange C19orf81 (ENSG00000235034): 0.9948 | log2FoldChange LINC00941 (ENSG00000235884): 0.9292 | log2FoldChange PNMA6A (ENSG00000235961): 0.8869 | log2FoldChange AL354719.2 (ENSG00000236345): 1.16 | log2FoldChange GGT8P (ENSG00000236969): 1.181 | log2FoldChange AL138828.1 (ENSG00000237596): 1.06 | log2FoldChange OXCT2P1 (ENSG00000237624): 1.01 | log2FoldChange SPATA3-AS1 (ENSG00000238062): 1.082 | log2FoldChange AC026250.1 (ENSG00000245522): 0.9507 | log2FoldChange SBF2-AS1 (ENSG00000246273): 0.9574 | log2FoldChange AC104066.1 (ENSG00000248375): 0.8941 | log2FoldChange LINC02021 (ENSG00000249846): 1.04 | log2FoldChange AC091173.1 (ENSG00000251127): 1.149 | log2FoldChange SMG1P6 (ENSG00000254634): 1.045 | log2FoldChange ZNF10 (ENSG00000256223): 0.6255 | log2FoldChange C17orf100 (ENSG00000256806): 0.644 | log2FoldChange AC073611.1 (ENSG00000257605): 0.6207 | log2FoldChange LINC01579 (ENSG00000258754): 0.7555 | log2FoldChange AC013652.1 (ENSG00000259345): 0.6859 | log2FoldChange AC011468.1 (ENSG00000260160): 0.8721 | log2FoldChange LINC02170 (ENSG00000260896): 0.7455 | log2FoldChange LINC00622 (ENSG00000260941): 0.6079 | log2FoldChange EPPK1 (ENSG00000261150): 0.7148 | log2FoldChange LINC01029 (ENSG00000265843): 0.6081 | log2FoldChange PCAT19 (ENSG00000267107): 1.193
